Data published in patent publication US11384115B2, “Nuclear sulfated oxysterol, potent regulator of lipid homeostasis, for therapy of hypercholesterolemia, hypertriglycerides, fatty liver diseases, and atherosclerosis” (Virginia Commonwealth University, priority 2004, dated 2022).

How the values were obtained:
PPARγ = target: T1, PPARγ (Homo sapiens, UniProt P37231); assay: Western blot of nuclear PPARγ levels in THP-1 macrophages; format: cell-based; conditions: for nuclear PPARγ protein levels: THP-1 macrophages, 4 hrs
T1 construct: THP-1 monocytes were differentiated to macrophages by adding 100 nM of phorbol 12-myristate 13-acetate (PMA); endogenous in cells; host or cells: THP-1 monocyte-derived macrophages (human, ATCC)
T1 sequence (P37231 1-505): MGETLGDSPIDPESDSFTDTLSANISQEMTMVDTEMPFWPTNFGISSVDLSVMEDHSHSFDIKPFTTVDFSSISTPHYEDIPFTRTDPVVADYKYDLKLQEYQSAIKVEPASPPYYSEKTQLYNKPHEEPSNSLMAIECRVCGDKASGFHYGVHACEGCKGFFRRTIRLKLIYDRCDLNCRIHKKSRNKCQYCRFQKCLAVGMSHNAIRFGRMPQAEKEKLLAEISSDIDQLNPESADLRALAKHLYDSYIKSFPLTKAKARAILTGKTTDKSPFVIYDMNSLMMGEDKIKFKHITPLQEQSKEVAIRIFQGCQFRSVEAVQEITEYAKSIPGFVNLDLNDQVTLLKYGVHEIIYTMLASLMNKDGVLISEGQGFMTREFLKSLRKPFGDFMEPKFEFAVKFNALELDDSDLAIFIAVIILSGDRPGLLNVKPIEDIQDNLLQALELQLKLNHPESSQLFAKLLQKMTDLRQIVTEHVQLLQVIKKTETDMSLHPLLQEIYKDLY
Experimental: FIGS. 21A and 21B. Effects of 25HC3S and 25HC on PPARγ protein levels in THP-1 macrophages. A, THP-1 macrophages were treated with 25HC3S (top panel) or 25HC (middle panel) at different concentration as indicated for 4 hrs. The nuclear PPARγ levels were analyzed by Western blot. […] Expression levels were normalized to Lamin as shown in the bottom panels. The data represent one typical result out of three experiments.
Human THP-1 monocytes and H441 cells were purchased from the American Type Culture Collection (Manassas, Va.) and maintained according to the supplier's protocols. THP-1 monocytes were differentiated to macrophages by adding 100 nM of phorbol 12-myristate 13-acetate (PMA). When cells reached 90% confluence, oxysterols in DMSO or in ethanol (the final concentration in media was <0.1%) were added as indicated. The cells were harvested at the times as indicated. Nuclear and cytosolic fractions were isolated using NE-PER®, Nuclear and Cytoplasmic Extraction Reagents (Pierce, Rockford, Ill. Western blot analysis of nuclear PPAR and intracellular I B levels
Fifty μg of total cell lysates or nuclear protein extracts, otherwise as indicated, were separated on 10% SDS-PAGE gels and transferred onto a polyvinylidene difluoride membrane as described previously. Membranes were blocked in TBS containing 5% of nonfat dried milk for 1 hr. The specific proteins were determined by incubation with specific antibodies against human PPAR or IκB overnight at 4° C. with shaking. After washing, the membrane was incubated in a 1:3,000 dilution of a secondary antibody (goat anti-rabbit or anti-mouse IgG-HP conjugate; Bio-Rad, Hercules, Calif.) at room temperature for 1 hr in the washing buffer (Tris buffered solution containing 0.5% Tween 20). The protein bands were visualized using Western Lightening Chemiluminescence Reagent (Perkin-Elmer, Waltham, Mass.). The expression levels were normalized to Lamin.

PPARγ mRNA = PPARγ mRNA by real time RT-PCR in macrophages; format: cell-based, human
Experimental: (§1) Total RNA was isolated from THP-1 derived macrophages following treatments for 6 hrs otherwise as indicated using SV Total RNA Isolation Kit (Promega, Wisconsin, Wis.), which includes DNase treatment. Two microgram of total RNA was used for first-strand cDNA synthesis as recommended by manufacturer (Invitrogen, Carlsbad, Calif.). Real-time RT-PCR was performed using SYBR Green as indicator on ABI 7500 Fast Real-Time PCR System (Applied Biosystems, Foster City, Calif.). The final reaction mixture contained 10 ng of cDNA, 100 nM of each primer, 10 μl of 2×SYBR® Green PCR Master Mix (Applied Biosystems, Foster City, Calif.), and RNase-free water to complete the reaction mixture volume to 20 μl. All reactions were performed in triplicate. PCR was carried out for 40 cycles of 95° C. for 15 s and 60° C. for 1 min. The fluorescence was read during the reaction, allowing a continuous monitoring of the amount of PCR product. The data was normalized to internal control GAPDH.

IκB = IκB mRNA (RT-PCR) and protein (Western blot) in THP-1 macrophages; format: cell-based, human; conditions: for IκB protein levels: Western blot, 24 hrs; for increase of IκB mRNA levels: macrophages; for IκB mRNA level: real time RT-PCR, 6 hrs
Experimental: FIG. 25A-C. […] The Western blot data represents one of three experiments.
Fifty μg of total cell lysates or nuclear protein extracts, otherwise as indicated, were separated on 10% SDS-PAGE gels and transferred onto a polyvinylidene difluoride membrane as described previously [31]. Membranes were blocked in TBS containing 5% of nonfat dried milk for 1 hr. The specific proteins were determined by incubation with specific antibodies against human PPAR or IκB overnight at 4° C. with shaking. After washing, the membrane was incubated in a 1:3,000 dilution of a secondary antibody (goat anti-rabbit or anti-mouse IgG-HP conjugate; Bio-Rad, Hercules, Calif.) at room temperature for 1 hr in the washing buffer (Tris buffered solution containing 0.5% Tween 20). The protein bands were visualized using Western Lightening Chemiluminescence Reagent (Perkin-Elmer, Waltham, Mass.). The expression levels were normalized to Lamin.

HepG2 cells = assay: Cholesterol levels in microsomal fractions by HPLC after cholesterol oxidase; format: cell-based, human; conditions: 0-25 μM
LXR = conditions: macrophages, cited from earlier work
TNFα and IL-1β mRNA = assay: LPS-induced TNFα, IL-1β and NFκB mRNA by real-time RT-PCR in THP-1 macrophages; format: cell-based, human; conditions: for LPS-induced IL-1β mRNA levels / LPS-induced TNFα mRNA levels: 25 hours; for LPS-induced IL-1β mRNA levels: FIG. 28A; for LPS-induced TNFα mRNA levels: FIG. 28B
Experimental: FIGS. 28A and B. Addition of 25HC3S suppresses LPS-induced IL-1β (A) and TNFα (B) expression in macrophages. To study the effect of 25HC3S on LPS-induced TNFα and IL-1β expression and release, macrophages were treated with 1 μg/ml of LPS and different concentrations of 25HC3S and 25HC as indicated for 25 hours; mRNA levels of TNFα and IL-1β were determined by real time RT-PCR. The results represent mean SD. […] Both 25HC3S and 25HC repressed LPS-induced TNFα mRNA levels as shown in B.
as §1
pSilencer2.1-U6 neo siRNA expression vector and negative control for RNAi were purchased from Ambion, Inc. (Austin, Tex.). Three human PPARγ oligonucleotide sequences, […] (siRNA1, SEQ ID NO: 13), […] (siRNA2, SEQ ID NO: 14), and […] (siRNA3, SEQ ID NO: 15), were selected as specific siRNAs to target human PPARγ. Synthetic sense and antisense oligonucleotides were annealed by incubated at 90° C. for 3 min and then at 37° C. for 1 hr. The double stranded oligonucleotides were cloned into the BamH I-Hind III sites of the pSilencer2.1-U6 neo vector according manufacturer's protocol. The control RNA interference (RNAi) sequence was a randomly scrambled and was not found in the mouse, human, or rat genome databases. All of the constructs were confirmed by sequencing. THP-1 macrophages were transfected with a PPARγ siRNA or control RNAi using FugeneHD reagent according to the manufacturer's instructions (Roche Applied Science, Indianapolis, Ind.). After incubation for 4 hrs, the medium was changed with normal medium and compounds were added at appropriate concentrations as indicated. Cells were harvested after 48 hrs following the addition, and PPARγ protein levels were determined using western blot and mRNA levels of inflammatory response factors were measured by real time RT-PCR analysis.

| SMILES | nuclear PPARγ protein levels (PPARγ) | nuclear PPARγ levels in the presence of the antagonist T0070907 (PPARγ; preincubated with 1 μM of T0070907 for 2 hrs) | PPARγ mRNA levels (PPARγ mRNA) | IκB protein levels (IκB) | increase of IκB mRNA levels (IκB; 12 μM) [folds] | increase of IκB mRNA levels (IκB; in the presence of TNFα) [folds] | IκB mRNA level (IκB) | cholesterol levels in the microsomal fraction (HepG2 cells) | cholesterol levels in the microsomal fraction (HepG2 cells; listed as nuclear oxysterol) | LXR activities and its targeting gene expressions (LXR) | LPS-induced IL-1β mRNA levels (TNFα and IL-1β mRNA; 1 μg/ml LPS) | LPS-induced TNFα mRNA levels (TNFα and IL-1β mRNA; 1 μg/ml LPS) | LPS-induced TNFα, IL-1β and NFκB expression (TNFα and IL-1β mRNA; 12 μM, 48 hrs, control macrophages) | suppression of IL-1 and TNFα expression in the presence of T0070907 (TNFα and IL-1β mRNA; PPARγ antagonist T0070907) | LPS-induced TNFα, IL-1β and NFκB expression in siRNA-expressed cells (TNFα and IL-1β mRNA; PPARγ knock down macrophages) | suppression of LPS-induced IL-1β mRNA levels (TNFα and IL-1β mRNA; macrophages, 1 μg/ml LPS) [fold] | rosiglitazone-increased nuclear PPARγ levels (PPARγ; preincubated with 1 μM of rosiglitazone for 2 hrs, 25HC for 4 hrs) | increase of LXR targeting gene expressions, ABCA1/G1 and SREBP-1 mRNAs (LXR; in 6 hrs) | increase of LPS-induced IL-1β mRNA levels (TNFα and IL-1β mRNA; macrophages, 1 μg/ml LPS) [fold] |
| --- | --- | --- | --- | --- | --- | --- | --- | --- | --- | --- | --- | --- | --- | --- | --- | --- | --- | --- | --- |
| C[C@H](CCCC(C)(C)O)[C@H]1CC[C@H]2[C@@H]3CC=C4C[C@@H](OS(=O)(=O)O)CC[C@]4(C)[C@H]3CC[C@]12C [25HC3S, 5-cholesten-3β, 25-diol 3-sulphate] | substantially increased | failed to increase the nuclear PPARγ levels to its maxima | neither 25HC nor 25HC3S was able to change | increased | 2.5 | 6 | significantly increased | significantly decreased | significant decrease | decreases | significantly suppressed | repressed | significantly suppressed | significantly be blunted | failed in suppressing | 2 | – | – | – |
| C[C@H](CCCC(C)(C)O)[C@H]1CC[C@H]2[C@@H]3CC=C4C[C@@H](O)CC[C@]4(C)[C@H]3CC[C@]12C [25HC, 25-hydroxycholesterol, reference compound] | decreased | – | neither 25HC nor 25HC3S was able to change | decreased | – | – | no significantly changed | significantly decreased | – | – | significantly increased | repressed | – | – | – | – | significantly inhibited | 5-50 fold | 2 |
